Experiments:
[1] = test system: HEK293T cells; experiment: Growth and survival of HEK293T cells (resazurin fluorescence, 72 h); format: cell-based; settings: 0.1% or 10% serum
Description: In order to study the effect of the compound of Formula (Ia) on cell growth and survival, HEK293T cells were cultured for 72 h at different serum concentrations (0.1%, 1%, 10%), in the absence or presence of compounds of Formula (Ia) (50 or 100 μM). The fluorescence of the cells was measured before and after treatment using a reagent containing resazurin. Since the intensity of fluorescence is correlated with the number of living cells, cell growth is estimated by relating the fluorescence measured at 72 h of treatment to that measured at t0. The presence of serum promotes cell growth. Thus, after 72 h, an increase in the cell population of 7 times at 0.1% of serum and of 10 times at 1 or 10% of serum is observed.

[2] = test system: PEPCK and G6Pase expression; experiment: Expression of neoglucogenesis genes in hepatocytes in primary culture (RT-qPCR); format: cell-based, mice; settings: 50 μM; glucagon 10 nM; absence of insulin; 8 h
Description: FIG. 6, the effect of the compound of Formula (Ia) according to the invention (black bars) on the expression of insulin target genes, PEPCK (FIG. 6A) and G6Pase (FIG. 6B), involved in the neoglucogenesis pathway. Hepatocytes in primary culture are cultured for 8 h in the presence of compounds of Formula (Ia) (50 μM), insulin (1 nM) and glucagon (pre-incubation 1 h at 10 nM). The relative quantification of mRNAs is performed by RT-qPCR. The values are related to the quantification of the 18S gene in the same sample in order to normalize the results. The results are the average of 3 to 5 independent experiments (*p<0.05, **p<0.01, by Anova followed by a Newman-Keuls test).
To study the inhibitory effect of insulin on neoglucogenesis gene expression, hepatocytes from mice in primary culture were pre-incubated with 10 nM glucagon.

[3] = test system: PI3K/Akt pathway; experiment: Luc-Akt-PH/YFP-membrane BRET in MCF7 line; format: cell-based; settings: 50 μM, MCF7 cells
Description: FIG. 5A and FIG. 5B, the effect of the compound of Formula (Ia) according to the invention (black bars) on the activation of the PI3K/Akt pathway measured by the Luc-Akt-PH/YFP-membrane BRET technique compared to the DMSO (Dimethylsulfoxide) control (white bars) as measured on (FIG. 5A) HEK293T cells pre-incubated or not for 1 h with tyrosine kinase inhibitor AG1024 at a concentration of 25 μM final or on (FIG. 5B) an MCF7 line doubly and stably transfected with the vectors encoding Luc-Akt-PH and YFP-membrane. The results, expressed as BRET delta, are the average of 3 to 8 independent experiments (**p<0.01, ***p<0.001, by Newman-Keuls multiple comparison test).
To measure the activity of the PI3-kinase pathway by the BRET technique, HEK293T cells are transfected with plasmids allowing, on the one hand, the expression of the PH (Pleckstrin Homology) domain of the Akt protein which has been fused to the luciferase and, on the other hand, a membrane-addressing sequence which has been fused to the YFP protein. When the PH domain of Akt is recruited to the membrane by the PIP3s, an energy transfer between the luciferase that is coupled to the PH domain of Akt and the membrane YFP protein takes place. The measured BRET signal is a control of the production of PIP3s at the membrane and is a reflection of the activation of the PI-3-kinase/Akt pathway in real time on cells. […]

Cc1ccc(/C=C/C(=O)Nc2ccc(S(=O)(=O)Nc3onc(C)c3C)cc2)o1 [Ia]
cell growth rate ([1]; 50 μM): does not alter | cell growth rate ([1]; 100 μM): does not alter | decrease in glucagon-induced G6Pase expression [2]: about 20% | decrease in glucagon-induced PEPCK expression [2]: about 20% | effect on the production of PIP3s at the membrane ([3]; absence of insulin): no effect | effect on the production of PIP3s at the membrane ([3]; presence of 100 nM insulin): no effect

From patent US11020378B2, “Compounds, compositions and methods for treating insulin resistance” (UNIVERSITE PARIS DESCARTES, priority 2017, dated 2021)
